Consider five molecules from article PMC4643674 (Journal of medicinal chemistry, 2013).

One data set has as its system P-gp (MDR1). Description: MDR1-MDCK permeability assay. The note with it: dog; for Papp A→B at 120 min, 5 µM / Papp B→A at 120 min, 5 µM: MDCK-MDR1, pH 7.4, Papp; for recovery at 120 min, 5 µM: MDCK-MDR1, pH 7.4, Recovery (%). The data set is classed as in vitro ADME, canine.
The subject of another data set is NMDA receptor subtypes. Description: two-electrode voltage clamp, activity statements without named subtype. The class given is cell-based. The note with it: receptor subtype not named. On the technique in general: In two-electrode clamp one electrode senses voltage and the other passes current.
Data set [1] is described as follows: human liver microsomal stability. The class given is in vitro ADME. A general note: Microsomes from liver hold many membrane-bound enzymes, among them those of drug oxidation.
A further data set in a line: plasma stability, rat. The data set is classed as in vitro ADME. The note with it: two-hour time-course, Figure S2.
For data set [2], the target named is GluN1/GluN2D (Rattus norvegicus, UniProt P35439+Q62645). The class given is cell-based.
GluN1/GluN2D (Rattus norvegicus, UniProt P35439+Q62645), sequence (Q62645 28-1323, other chains not shown): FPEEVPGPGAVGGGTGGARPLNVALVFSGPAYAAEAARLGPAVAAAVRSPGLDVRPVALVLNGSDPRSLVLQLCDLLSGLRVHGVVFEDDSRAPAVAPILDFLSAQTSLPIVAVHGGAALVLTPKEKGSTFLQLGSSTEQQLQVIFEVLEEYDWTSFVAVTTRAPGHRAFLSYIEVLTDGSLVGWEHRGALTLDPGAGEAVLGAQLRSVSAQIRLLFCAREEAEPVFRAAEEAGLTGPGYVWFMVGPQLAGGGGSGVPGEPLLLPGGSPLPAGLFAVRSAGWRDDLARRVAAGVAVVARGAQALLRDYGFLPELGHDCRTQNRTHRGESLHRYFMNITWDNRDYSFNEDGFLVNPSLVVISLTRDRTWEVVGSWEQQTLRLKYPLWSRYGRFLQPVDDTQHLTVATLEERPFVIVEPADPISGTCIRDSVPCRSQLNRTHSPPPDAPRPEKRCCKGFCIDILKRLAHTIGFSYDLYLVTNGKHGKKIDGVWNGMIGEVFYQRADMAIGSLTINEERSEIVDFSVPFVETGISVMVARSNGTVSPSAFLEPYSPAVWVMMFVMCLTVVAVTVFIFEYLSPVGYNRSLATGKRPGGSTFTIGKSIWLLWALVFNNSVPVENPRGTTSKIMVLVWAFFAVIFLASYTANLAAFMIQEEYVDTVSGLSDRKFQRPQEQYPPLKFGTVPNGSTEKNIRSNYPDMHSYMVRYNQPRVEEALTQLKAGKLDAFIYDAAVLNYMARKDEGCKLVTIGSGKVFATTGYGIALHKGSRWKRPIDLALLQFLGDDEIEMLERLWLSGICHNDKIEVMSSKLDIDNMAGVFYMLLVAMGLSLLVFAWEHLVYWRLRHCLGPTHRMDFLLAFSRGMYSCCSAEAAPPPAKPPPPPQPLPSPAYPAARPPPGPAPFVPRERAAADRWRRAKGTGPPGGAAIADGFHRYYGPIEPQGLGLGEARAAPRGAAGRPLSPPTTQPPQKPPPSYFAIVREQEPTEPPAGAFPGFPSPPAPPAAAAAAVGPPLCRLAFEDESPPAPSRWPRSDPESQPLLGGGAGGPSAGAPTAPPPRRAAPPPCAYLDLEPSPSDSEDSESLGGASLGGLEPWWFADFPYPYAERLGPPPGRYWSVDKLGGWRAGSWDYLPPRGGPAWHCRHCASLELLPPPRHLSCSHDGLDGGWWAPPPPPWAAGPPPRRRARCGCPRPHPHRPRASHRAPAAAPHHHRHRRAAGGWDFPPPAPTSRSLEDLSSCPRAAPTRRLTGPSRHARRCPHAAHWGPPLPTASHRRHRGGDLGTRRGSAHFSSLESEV
The next data set deals with GluN1/GluN2B (Rattus norvegicus, UniProt P35439+Q00960). The data set is classed as cell-based.
GluN1/GluN2B, sequence (Q00960 27-1482, other chains not shown): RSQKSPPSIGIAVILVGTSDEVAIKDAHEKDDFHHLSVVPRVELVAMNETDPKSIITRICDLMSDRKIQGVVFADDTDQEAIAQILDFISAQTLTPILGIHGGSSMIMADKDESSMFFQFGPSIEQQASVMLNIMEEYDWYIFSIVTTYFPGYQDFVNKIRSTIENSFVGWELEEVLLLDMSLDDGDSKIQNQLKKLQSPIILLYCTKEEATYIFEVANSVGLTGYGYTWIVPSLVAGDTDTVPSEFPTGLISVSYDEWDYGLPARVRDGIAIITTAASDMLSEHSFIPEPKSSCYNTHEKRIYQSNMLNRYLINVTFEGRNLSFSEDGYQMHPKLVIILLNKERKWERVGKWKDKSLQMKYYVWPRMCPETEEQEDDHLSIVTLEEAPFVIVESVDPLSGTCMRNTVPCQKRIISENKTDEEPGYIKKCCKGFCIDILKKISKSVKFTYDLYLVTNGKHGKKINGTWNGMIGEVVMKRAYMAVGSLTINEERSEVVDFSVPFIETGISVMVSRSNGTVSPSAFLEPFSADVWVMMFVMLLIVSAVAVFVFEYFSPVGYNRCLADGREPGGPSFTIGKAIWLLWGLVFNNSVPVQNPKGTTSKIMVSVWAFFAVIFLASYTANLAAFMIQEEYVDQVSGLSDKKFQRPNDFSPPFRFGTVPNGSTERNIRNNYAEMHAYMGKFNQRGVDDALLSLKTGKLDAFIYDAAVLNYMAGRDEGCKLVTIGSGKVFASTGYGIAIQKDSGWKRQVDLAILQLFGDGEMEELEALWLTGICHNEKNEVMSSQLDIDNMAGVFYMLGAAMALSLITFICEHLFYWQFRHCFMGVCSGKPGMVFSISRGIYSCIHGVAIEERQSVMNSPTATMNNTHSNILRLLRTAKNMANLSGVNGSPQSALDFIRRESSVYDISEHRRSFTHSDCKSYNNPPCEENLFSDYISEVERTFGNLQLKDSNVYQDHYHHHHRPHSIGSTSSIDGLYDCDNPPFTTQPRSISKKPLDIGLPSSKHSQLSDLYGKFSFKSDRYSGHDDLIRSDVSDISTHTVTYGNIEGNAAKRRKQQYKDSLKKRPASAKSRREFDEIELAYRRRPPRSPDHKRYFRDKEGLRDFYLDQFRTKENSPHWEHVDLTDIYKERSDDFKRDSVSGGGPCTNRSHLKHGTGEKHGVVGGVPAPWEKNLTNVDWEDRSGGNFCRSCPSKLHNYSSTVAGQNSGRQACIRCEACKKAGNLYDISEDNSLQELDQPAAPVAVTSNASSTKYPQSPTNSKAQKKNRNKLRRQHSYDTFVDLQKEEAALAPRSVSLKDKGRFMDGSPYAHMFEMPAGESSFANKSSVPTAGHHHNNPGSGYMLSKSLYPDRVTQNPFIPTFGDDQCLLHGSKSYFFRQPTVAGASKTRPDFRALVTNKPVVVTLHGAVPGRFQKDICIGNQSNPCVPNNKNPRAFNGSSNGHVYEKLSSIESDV
Another data set addresses GluN1/GluN2A (Rattus norvegicus, UniProt P35439+Q00959). The class given is cell-based.
The nature of another data set: plasma stability, human. The class given is in vitro ADME. The note with it: two-hour time-course, Figure S2.
A further data set addresses GluN1/GluN2C (Rattus norvegicus, UniProt P35439+Q00961). The class given is cell-based.
A short description of a further data set: plasma stability, mouse. The class given is in vitro ADME. The note with it: two-hour time-course, Figure S2.
For a further data set, the system named is MDR1-MDCK. The experiment in a line: MDR1-MDCK permeability assay. The class given is in vitro ADME, canine. The note with it: A-to-B; 5 µM; 120 minutes.
Data set [3] has as its system GluN2D receptor mutants (Q801Y, L705F and A752V). Description: inhibition of mutant GluN2D receptors. The data set is classed as cell-based. The note with it: mutants vs wild type GluN2D; Figure S1.
Data set [4] has as its system 42 different ion channels, G-protein coupled receptors, and transporters. The experiment in a line: NIMH PDSP primary binding assay. The note with it: 5 µM compound.
The next data set has as its target GluA3 (Rattus norvegicus, UniProt P19492). Description: off-target two-electrode voltage clamp, GluA3. The class given is cell-based. The note with it: read-out: ITEST / ICONTROL (mean ± SEM, %).
The target of another data set is GluK1 (Rattus norvegicus, UniProt P22756). The experiment in a line: off-target two-electrode voltage clamp, GluK1. The data set is classed as cell-based. The note with it: read-out: ITEST / ICONTROL (mean ± SEM, %).
GluK1, sequence (P22756 31-949): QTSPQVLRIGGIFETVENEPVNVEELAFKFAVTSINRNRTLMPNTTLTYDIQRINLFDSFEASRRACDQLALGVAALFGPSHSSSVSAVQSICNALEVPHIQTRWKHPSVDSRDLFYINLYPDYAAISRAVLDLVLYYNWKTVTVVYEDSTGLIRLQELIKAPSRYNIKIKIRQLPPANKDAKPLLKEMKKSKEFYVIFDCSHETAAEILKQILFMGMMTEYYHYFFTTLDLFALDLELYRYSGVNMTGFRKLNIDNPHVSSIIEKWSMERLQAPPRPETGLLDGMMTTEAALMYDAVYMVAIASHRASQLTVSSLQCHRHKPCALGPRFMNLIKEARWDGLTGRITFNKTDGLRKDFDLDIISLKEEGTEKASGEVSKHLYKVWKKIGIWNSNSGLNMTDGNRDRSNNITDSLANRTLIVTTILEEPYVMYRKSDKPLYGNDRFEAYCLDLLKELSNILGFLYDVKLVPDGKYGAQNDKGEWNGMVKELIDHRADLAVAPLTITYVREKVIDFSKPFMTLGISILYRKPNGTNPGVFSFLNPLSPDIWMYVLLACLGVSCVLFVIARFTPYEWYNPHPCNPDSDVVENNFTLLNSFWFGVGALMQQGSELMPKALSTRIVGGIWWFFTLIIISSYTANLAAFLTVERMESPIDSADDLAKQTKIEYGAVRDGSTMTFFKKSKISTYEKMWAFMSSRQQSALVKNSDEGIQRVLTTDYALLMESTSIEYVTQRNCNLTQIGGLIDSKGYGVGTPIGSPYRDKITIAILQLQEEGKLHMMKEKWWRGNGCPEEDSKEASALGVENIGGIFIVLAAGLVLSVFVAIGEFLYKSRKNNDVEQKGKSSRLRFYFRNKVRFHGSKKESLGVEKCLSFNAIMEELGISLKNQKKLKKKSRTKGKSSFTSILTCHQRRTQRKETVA
Data set [5] concerns the target GluN1/GluN2D (Rattus norvegicus, UniProt Q62645). The class given is cell-based.
The mark [6] stands for this setting: human, liver microsomes, pH 7.4.

Some results are limits rather than exact numbers.

GluN1/GluN2D (Rattus norvegicus, UniProt Q62645), sequence (Q62645 28-1323, other chains not shown): as the sequence (Q62645 28-1323, other chains not shown) above
GluN1/GluN2C, sequence (Q00961 20-1237, other chains not shown): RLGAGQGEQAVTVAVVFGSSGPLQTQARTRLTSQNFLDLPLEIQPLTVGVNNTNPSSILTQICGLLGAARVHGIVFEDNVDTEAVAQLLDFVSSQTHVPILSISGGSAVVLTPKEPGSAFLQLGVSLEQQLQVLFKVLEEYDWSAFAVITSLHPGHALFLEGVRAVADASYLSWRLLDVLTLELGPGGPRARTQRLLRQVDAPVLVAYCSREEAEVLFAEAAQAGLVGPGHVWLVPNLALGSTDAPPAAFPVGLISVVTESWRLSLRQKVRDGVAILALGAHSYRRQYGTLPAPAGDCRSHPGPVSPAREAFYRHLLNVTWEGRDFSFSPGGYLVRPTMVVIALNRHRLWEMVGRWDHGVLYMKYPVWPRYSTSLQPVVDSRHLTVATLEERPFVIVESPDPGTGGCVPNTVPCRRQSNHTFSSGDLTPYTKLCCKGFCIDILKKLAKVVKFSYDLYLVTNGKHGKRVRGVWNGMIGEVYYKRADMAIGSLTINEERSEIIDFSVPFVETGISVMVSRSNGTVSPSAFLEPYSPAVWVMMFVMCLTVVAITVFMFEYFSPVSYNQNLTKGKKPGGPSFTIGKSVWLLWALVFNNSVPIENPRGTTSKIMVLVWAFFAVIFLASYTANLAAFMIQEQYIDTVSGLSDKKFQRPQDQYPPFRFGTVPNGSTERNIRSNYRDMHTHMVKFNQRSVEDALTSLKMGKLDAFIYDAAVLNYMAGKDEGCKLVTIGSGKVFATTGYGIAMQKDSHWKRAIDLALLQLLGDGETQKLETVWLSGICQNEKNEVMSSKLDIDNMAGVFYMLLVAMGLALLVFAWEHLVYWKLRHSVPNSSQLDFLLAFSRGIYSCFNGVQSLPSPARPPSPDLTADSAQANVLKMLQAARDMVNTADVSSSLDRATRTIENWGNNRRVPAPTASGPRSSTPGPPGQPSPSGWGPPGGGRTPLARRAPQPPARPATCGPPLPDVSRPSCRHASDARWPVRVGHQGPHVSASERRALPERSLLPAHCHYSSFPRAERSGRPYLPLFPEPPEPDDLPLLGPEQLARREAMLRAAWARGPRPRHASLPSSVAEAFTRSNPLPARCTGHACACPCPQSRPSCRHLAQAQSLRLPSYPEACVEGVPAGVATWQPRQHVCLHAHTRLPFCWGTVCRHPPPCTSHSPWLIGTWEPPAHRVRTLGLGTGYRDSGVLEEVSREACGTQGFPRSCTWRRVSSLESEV

As a reminder, the Papp A→B is the apparent permeability from the apical to the basolateral side of a cell layer. Read a high Papp A→B as fast passage. The Papp B→A is how fast a substance crosses the layer from the basolateral side. Usually microsomal CLint stands for the capacity of the preparation to metabolise the compound, expressed as a volume cleared per time. A lower microsomal CLint goes with slow turnover. By share remaining is commonly meant what is left of the initial amount, in per cent. High values mean less turnover, low ones more turnover. In the case of `O=C(CCCF)N1N=C(c2c(-c3ccc(Cl)cc3)c3ccccc3[nH]c2=O)CC1c1ccc(Cl)cc1` (stereo not drawn) [Compound 68, 4-(4-Chlorophenyl)-3-[5-(4-chlorophenyl)-1-(4-fluorobutanoyl)-4,5-dihydro-1H-pyrazol-3-yl]quinolin-2(1H)-one], the Papp A→B at 120 min, 5 µM in the data set on P-gp (MDR1) (determination 1, A-to-B) stood at 4.51 ×10⁻⁶ cm/s; in the data set on P-gp (MDR1) (determination 2, A-to-B) it was 3.24 ×10⁻⁶ cm/s. The Papp B→A at 120 min, 5 µM in the data set with P-gp (MDR1) (determination 1, B-to-A) was 9.32 ×10⁻⁶ cm/s; in the data set on P-gp (MDR1) (determination 2, B-to-A), 9.72 ×10⁻⁶ cm/s. In addition, the “activity (in words)” value in the data set with NMDA receptor subtypes was “inactive”. In [1] (setting [6]), the microsomal CLint at 1 µM was found to be 40 µL/min/mg. Further, in data set [1] (setting [6]), the fraction remaining at 0 h, 1 µM turned out to be 100%.

By efflux ratio is commonly meant the permeability from basolateral to apical divided by that in the opposite direction, in the common usage. One may read the IC50 as the concentration that gives 50% inhibition. A higher IC50 goes with weaker potency in that assay. What is called half-life is the time needed for the level to fall by half in the phase considered. The low end stands for rapid decline, the high end for slow decline. Consider `O=C(CCCO)N1N=C(c2c(-c3ccc(Cl)cc3)c3ccccc3[nH]c2=O)CC1c1ccc(Cl)cc1` (stereo not drawn) [Compound 64, 4-(4-Chlorophenyl)-3-[5-(4-chlorophenyl)-1-(4-hydroxybutanoyl)-4,5-dihydro-1H-pyrazol-3-yl]quinolin-2(1H)-one], for which the plasma stability result in the data set “plasma stability, rat” was “minimal degradation”; in “plasma stability, human”, “minimal degradation”; in the data set “plasma stability, mouse”, “minimal degradation”. Moreover, in the data set on P-gp (MDR1) (MDCK-MDR1, pH 7.4), the efflux ratio at 120 min, 5 µM is 26. In addition, the Papp B→A at 120 min, 5 µM in the data set with P-gp (MDR1) (Avg, B-to-A) is 64.5 ×10⁻⁶ cm/s; in the data set with P-gp (MDR1) (determination 1, B-to-A) it was 66.2 ×10⁻⁶ cm/s; with P-gp (MDR1) (determination 2, B-to-A), 62.7 ×10⁻⁶ cm/s. For the same molecule, the Papp A→B at 120 min, 5 µM came out at 2.45 ×10⁻⁶ cm/s in the data set on P-gp (MDR1) (determination 1, A-to-B) and 2.48 ×10⁻⁶ cm/s in the data set on P-gp (MDR1) (determination 2, A-to-B). Moreover, the recovery at 120 min, 5 µM in the data set with P-gp (MDR1) (A-to-B) is 43%; in the data set with P-gp (MDR1) (B-to-A) it was 73%. Also, the IC50 on GluN1/GluN2D [2] is 0.69 µM; against GluN1/GluN2B, 33 µM; on GluN1/GluN2A, 62 µM; against GluN1/GluN2C, 1.7 µM. The molecule also gave a half-life at 1 µM in [1] (setting [6]) of 13 min. Besides, the intrinsic clearance (microsomal CLint) at 1 µM in data set [1] (setting [6]) was 110 µL/min/mg. In data set [1] (setting [6]), this molecule yielded a share remaining at 0 h, 1 µM of 100%. Moreover, the fraction remaining at 0.5 h, 1 µM in data set [1] (setting [6]) came to 24%. The molecule further yielded an amount remaining at 1 h, 1 µM in data set [1] (setting [6]) of 6.5%.

For `O=C(O)CCC(=O)N1N=C(c2c(-c3ccc(Cl)cc3)c3ccccc3[nH]c2=O)CC1c1ccc(Cl)cc1` (stereo not drawn) [Compound 26, 4-{5-(4-Chlorophenyl)-3-[4-(4-chlorophenyl)-2-oxo-1,2-dihydroquinolin-3-yl]-4,5-dihydro-1H-pyrazol-1-yl}-4-oxobutanoic acid], the plasma stability entry in “plasma stability, rat” is “minimal degradation”; in “plasma stability, human” it was “minimal degradation”; in “plasma stability, mouse”, “minimal degradation”. Moreover, the “Papp, Avg” value with MDR1-MDCK is on record as 0.47 10^−6cm/s. For the same molecule, the Papp B→A at 120 min, 5 µM in the data set on P-gp (MDR1) (determination 1, B-to-A) is 33.4 ×10⁻⁶ cm/s; in the data set with P-gp (MDR1) (determination 2, B-to-A) it was 17.9 ×10⁻⁶ cm/s. Besides, the “effect of mutations on degree of inhibition” value in data set [3] was “significantly reduced the degree of inhibition”. Further, the “effect in primary binding assay” value in data set [4] is “minimal effect”. The microsomal CLint at 1 µM in data set [1] (setting [6]) was below 20 µL/min/mg. Moreover, the “degradation in human liver microsomes (in words)” value in data set [1] (over the 60 minute assay) is listed as “minimal degradation”.

In the case of `O=C(O)/C=C/C(=O)N1N=C(c2c(-c3ccc(Br)cc3)c3ccccc3[nH]c2=O)CC1c1ccc(Cl)cc1` (stereo not drawn) [Compound 58, (E)-4-{3-[4-(4-Bromophenyl)-2-oxo-1,2-dihydroquinolin-3-yl]-5-(4-chlorophenyl)-4,5-dihydro-1H-pyrazol-1-yl}-4-oxobut-2-enoic acid], the plasma stability result was “minimal degradation” in “plasma stability, rat”; “minimal degradation” in the data set “plasma stability, human”; “minimal degradation” in “plasma stability, mouse”. For the same molecule, the values for the remaining activity at 3 µM on GluA3 and on GluK1 were 100 ± 1.1% and 100 ± 4.4%, respectively. In data set [4], the “effect in primary binding assay” value is “minimal effect”.

For `O=C(O)CCC(=O)N1N=C(c2c(-c3ccc(Cl)cc3)c3ccccc3[nH]c2=O)C[C@H]1c1ccc(Cl)cc1` [Compound 69], the “selectivity over other NMDA receptor subunits” value on GluN1/GluN2D [5] (GluN2D/GluN2C vs other subunits) is listed as “over 70 fold”. The “fold more potent at GluN2D-containing receptors than the R-enantiomer, 70” value at GluN1/GluN2D [5] (S-enantiomer vs R-enantiomer) is 11 fold.
